# Source: PMC3611663 (American heart journal, 2011)
# Read-outs that look alike come from different tables or passages of the source. Bridge positions count the residues as written; N and C are the ends. Square brackets hold non-standard residues; d marks the D form. Peptide text beside a SMILES is read from it. hArg = N=C(N)NCCCC[C@H](N)C(=O)O; Mpa = O=C(O)CCS
# Columns and labels:
# GP IIb/IIIa receptor = conditions: PRIDE study; cited from earlier work
# [1] = type: in vivo, human
smiles,measurement,setting,value
N=C(N)NCCCC[C@@H]1NC(=O)CCSSC[C@@H](C(N)=O)NC(=O)[C@@H]2CCCN2C(=O)[C@H](Cc2c[nH]c3ccccc23)NC(=O)[C@H](CC(=O)O)NC(=O)CNC1=O [Eptifibatide] ([Mpa][hArg]GDWPC-NH2; disulfide 1-7 (inferred); C-terminus assumed),Plasma concentration necessary to achieve >80% occupancy of the GP IIb/IIIa receptor,GP IIb/IIIa receptor,approximately 1600 ng/mL
same,Slope of plasma concentration versus body weight (ANCOVA regression),[1]; ABW dosing,20.6
same,Patients with plasma Eptifibatide >1600 ng/mL,[1]; ABW-based dosing (N=22),14 (64) no. (%)
same,Patients with plasma Eptifibatide ≤1600 ng/mL,[1]; ABW-based dosing (N=22),8 (36) no. (%)
same,Slope of plasma concentration versus body weight (ANCOVA regression),[1]; IBW dosing,6.9
same,Patients with plasma Eptifibatide >1600 ng/mL,[1]; IBW-based dosing (N=20),2 (10) no. (%)
same,Patients with plasma Eptifibatide ≤1600 ng/mL,[1]; IBW-based dosing (N=20),18 (90) no. (%)
same,Slope of plasma concentration versus body weight (ANCOVA regression),[1]; standard dosing,−6.4
same,Patients with plasma Eptifibatide >1600 ng/mL,[1]; standard dosing (N=19),10 (53) no. (%)
same,Patients with plasma Eptifibatide ≤1600 ng/mL,[1]; standard dosing (N=19),9 (47) no. (%)
